Test results reported in ChEMBL document CHEMBL1201862, “PubChem BioAssay data set” (2004).
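Cells were grown in 96-well plates and exposed to each compound for 48 hours at five concentrations; endpoints were interpolated linearly between bracketing concentrations, or set to the highest concentration if not reached. At the GI50, growth is halved.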 The source made the active and inactive calls. Rule as the data show it: active = GI50 up to about 1.1 µM and inactive = higher.

Tests used:
Test in all cases: NCI anticancer screen, dose series, 48 h
OVCAR-4 = system: OVCAR-4
SF-539 = system: SF-539
COLO 205 = system: COLO 205
ACHN = system: ACHN
SNB-19 = system: SNB-19
HOP-62 = system: HOP-62
M14 = system: M14
RXF 393 = system: RXF 393
SF-268 = system: SF-268
BT-549 = system: BT-549
HCC 2998 = system: HCC 2998
UACC-257 = system: UACC-257
UACC-62 = system: UACC-62
OVCAR-3 = system: OVCAR-3
OVCAR-8 = system: OVCAR-8
SK-MEL-28 = system: SK-MEL-28
HT-29 = system: HT-29
MCF7 = system: MCF7
Malme-3M = system: Malme-3M
NCI-H522 = system: NCI-H522

Measured: GI50

CC1=CSC(O)(c2ccc(Cl)cc2)c2noc(=O)n21 (centres undefined)
inactive: OVCAR-4 > 100 µM | SF-539 > 100 µM | COLO 205 > 100 µM | ACHN > 100 µM | SNB-19 > 100 µM | HOP-62 > 100 µM | M14 > 100 µM | RXF 393 71.6 µM | SF-268 > 100 µM | BT-549 > 100 µM | HCC 2998 14.4 µM | UACC-257 24.4 µM | UACC-62 44.9 µM | OVCAR-3 72.1 µM | OVCAR-8 97.7 µM | SK-MEL-28 29.2 µM | HT-29 > 100 µM | MCF7 66.4 µM

Cc1cc(C)c(S(=O)(=O)N(CCCCCCN)OCCCON(CCCCCCN)S(=O)(=O)c2c(C)cc(C)cc2C)c(C)c1
inactive: OVCAR-4 1.67 µM | Malme-3M 1.45 µM | SF-539 2.28 µM | COLO 205 1.89 µM | ACHN 2.55 µM | SNB-19 1.62 µM | HOP-62 1.8 µM | M14 1.66 µM | RXF 393 1.7 µM | SF-268 1.78 µM | BT-549 1.65 µM | UACC-257 1.69 µM | UACC-62 1.74 µM | NCI-H522 1.73 µM | OVCAR-3 1.76 µM | OVCAR-8 1.79 µM | SK-MEL-28 1.83 µM | HT-29 1.66 µM | MCF7 1.91 µM

Nc1nc(N)nc(CCCCc2nc(N)nc(N)n2)n1
inactive: OVCAR-4 > 100 µM | Malme-3M > 100 µM | SF-539 > 100 µM | COLO 205 > 100 µM | ACHN > 100 µM | SNB-19 > 100 µM | HOP-62 > 100 µM | M14 > 100 µM | RXF 393 > 100 µM | SF-268 > 100 µM | BT-549 > 100 µM | UACC-257 > 100 µM | UACC-62 > 100 µM | NCI-H522 > 100 µM | OVCAR-3 > 100 µM | OVCAR-8 > 100 µM | SK-MEL-28 > 100 µM | HT-29 > 100 µM | MCF7 > 100 µM

CC1(C)OC(=O)N(c2ccccc2)C12C=Cc1cccc([N+](=O)[O-])c1O2 (centres undefined)
inactive: OVCAR-4 56.2 µM | COLO 205 45.1 µM | ACHN > 100 µM | SNB-19 > 100 µM | HOP-62 > 100 µM | M14 51.6 µM | RXF 393 > 100 µM | SF-268 > 100 µM | BT-549 > 100 µM | HCC 2998 > 100 µM | UACC-257 47.6 µM | UACC-62 80 µM | NCI-H522 36.5 µM | OVCAR-3 > 100 µM | OVCAR-8 92.7 µM | SK-MEL-28 90.8 µM | HT-29 98.9 µM | MCF7 79.3 µM
